Reference: publication PMC7059125 (Bioorganic & medicinal chemistry letters, 2018)
Each block holds one compound with its values, some of them ahead of it.

Target: mushroom tyrosinase (Agaricus bisporus, UniProt C7FF04)
Assay: Tyrosinase inhibitory assay
Assay type: biochemical
[1] = percent inhibition at 500 μM, versus carvacrol (1)

Chain of mushroom tyrosinase (C7FF04 1-392): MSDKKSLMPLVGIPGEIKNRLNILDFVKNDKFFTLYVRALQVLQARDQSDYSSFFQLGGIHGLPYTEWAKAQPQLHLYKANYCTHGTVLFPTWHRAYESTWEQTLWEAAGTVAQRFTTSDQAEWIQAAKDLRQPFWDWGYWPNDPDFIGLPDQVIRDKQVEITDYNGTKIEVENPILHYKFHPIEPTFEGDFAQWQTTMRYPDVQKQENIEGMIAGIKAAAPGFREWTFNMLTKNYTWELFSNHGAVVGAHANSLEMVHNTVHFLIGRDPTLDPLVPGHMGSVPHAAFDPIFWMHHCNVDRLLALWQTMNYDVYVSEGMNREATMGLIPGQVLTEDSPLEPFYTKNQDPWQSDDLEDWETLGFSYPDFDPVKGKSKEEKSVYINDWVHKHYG

fold increase in activity relative to carvacrol [1]: 1.6 fold
Structure (SMILES): CCOc1cc(C(C)C)ccc1C [Compound 3, ethyl carvacrol]

fold decrease in activity relative to carvacrol [1]: 2.1 fold
Structure (SMILES): CCOc1cc(C(C)C)c(C(=O)CCC(=O)O)cc1C [Compound 5]

inhibition at 500 µM: 100 ± 3.9%
Structure (SMILES): CCCCOC(=O)CCC(=O)c1cc(C(C)C)c(OCC)cc1C [Compound 18]
